Test results as given in patent US20160046618A1, “Cyclopropyl Fused Thiazin-2-Amine Compounds as Beta-Secretase Inhibitors and Methods of Use” (AMGEN INC., priority 2014, published 2016).

Tests used:
[1] = biological target: human recombinant BACE2 (Homo sapiens (Human), UniProt Q9Y5Z0); assay: In vitro enzymatic BACE2 FRET assay; assay type: biochemical; conditions: read-out: IC50 IP (μM) BACE2 enzyme
Summary of the method: (§1)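 Tris addition raises the pH to neutral to stop the reaction before fluorescence is measured at 590 nm emission with 488 nm excitation.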

[2] = system: Aβ40 in conditioned medium of cells stably expressing Amyloid Precursor Protein (APP); assay: In vitro BACE-1 cell-based assay (Aβ40 sandwich ELISA); conditions: read-out: IC50 IP (μM) BACE1 cell
Summary of the method: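 Read-out: time-resolved fluorescence (Streptavidin-Europium) of Aβ40 captured by pAb40 and detected with biotinylated 6E10 from supernatants of APP-stable cells. Cells were exposed to compound for 24 h, 10-point dose response, top dose 100 μM or 10 μM, 0.1% DMSO. IC50 fitted to percent of control.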

[3] = biological target: Recombinant Cat D (Homo sapiens (Human), UniProt P07339); assay: In vitro enzymatic Cathepsin D (Cat D) FRET assay; assay type: biochemical; conditions: read-out: IC50 IP (μM) CatD
Summary of the method: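 Cleavage of a 20 nM fluorophore/quencher peptide by CHO-expressed recombinant Cat D proceeded for one hour at pH 3.5 (0.05 M citrate, 5 mM CHAPS, 10% DMSO final). Tris addition neutralized the pH to end the reaction. Fluorescence was then measured (ex 500 nm/em 580 nm).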

[4] = biological target: human recombinant BACE1 (Homo sapiens (Human), UniProt P56817); assay: In vitro enzymatic BACE1 FRET assay; assay type: biochemical; conditions: read-out: IC50 IP (μM) BACE1 enzyme
Summary of the method: as §1

Chain of Recombinant Cat D (P07339 65-412): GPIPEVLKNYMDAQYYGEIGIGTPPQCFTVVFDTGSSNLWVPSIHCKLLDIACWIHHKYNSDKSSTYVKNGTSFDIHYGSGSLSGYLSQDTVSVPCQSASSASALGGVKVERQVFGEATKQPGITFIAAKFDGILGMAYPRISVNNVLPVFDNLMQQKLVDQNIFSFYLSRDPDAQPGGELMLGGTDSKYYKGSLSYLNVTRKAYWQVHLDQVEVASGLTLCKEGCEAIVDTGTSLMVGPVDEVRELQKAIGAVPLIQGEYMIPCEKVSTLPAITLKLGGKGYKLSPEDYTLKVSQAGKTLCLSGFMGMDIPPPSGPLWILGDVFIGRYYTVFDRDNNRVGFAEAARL
Chain of human recombinant BACE1 (P56817 46-501): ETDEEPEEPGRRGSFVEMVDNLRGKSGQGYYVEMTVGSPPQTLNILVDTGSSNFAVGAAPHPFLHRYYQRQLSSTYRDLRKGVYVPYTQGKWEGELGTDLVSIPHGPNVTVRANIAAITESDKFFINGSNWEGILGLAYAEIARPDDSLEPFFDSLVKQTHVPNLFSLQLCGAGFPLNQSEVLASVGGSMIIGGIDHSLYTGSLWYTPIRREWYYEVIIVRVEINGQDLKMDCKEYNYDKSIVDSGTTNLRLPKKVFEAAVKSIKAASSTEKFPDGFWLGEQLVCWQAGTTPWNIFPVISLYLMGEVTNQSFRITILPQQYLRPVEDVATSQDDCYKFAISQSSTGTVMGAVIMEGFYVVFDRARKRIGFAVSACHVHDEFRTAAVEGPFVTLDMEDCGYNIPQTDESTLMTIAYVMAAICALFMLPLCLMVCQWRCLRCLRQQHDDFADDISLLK
Chain of human recombinant BACE2 (Q9Y5Z0 63-518): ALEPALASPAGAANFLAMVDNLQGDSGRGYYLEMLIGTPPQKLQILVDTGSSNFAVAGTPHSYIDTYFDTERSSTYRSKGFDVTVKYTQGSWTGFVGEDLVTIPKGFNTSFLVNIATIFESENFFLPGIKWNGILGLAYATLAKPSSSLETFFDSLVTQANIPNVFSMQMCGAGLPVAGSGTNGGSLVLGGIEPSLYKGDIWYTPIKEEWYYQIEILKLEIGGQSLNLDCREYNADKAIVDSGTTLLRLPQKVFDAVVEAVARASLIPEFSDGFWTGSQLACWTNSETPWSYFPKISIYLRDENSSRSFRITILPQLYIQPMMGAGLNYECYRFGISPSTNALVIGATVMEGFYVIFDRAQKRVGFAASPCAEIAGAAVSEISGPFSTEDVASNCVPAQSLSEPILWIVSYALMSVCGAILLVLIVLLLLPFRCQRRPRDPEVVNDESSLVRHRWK

| Structure (SMILES) | IC50 [1] [µM] | IC50 [2] [µM] | IC50 [3] [µM] | IC50 [4] [µM] |
| --- | --- | --- | --- | --- |
| C#CCOc1cnc(C(=O)Nc2cc(F)c(F)c([C@@]3(C)N=C(N)S[C@@]4(COC)C[C@H]43)c2)c(C)n1 [Example 862, N-(3-((1S,5S,6S)-3-amino-1-(methoxymethyl)-5-methyl-2-thia-4-azabicyclo[4.1.0]hept-3-en-5-yl)-4,5-difluorophenyl)-3-methyl-5-(2-propyn-1-yloxy)-2-pyrazinecarboxamide] | 0.017 | 0.0072 | 129 | 0.000598 |
| COC[C@]12C[C@H]1[C@@](C)(c1cc(NC(=O)c3ncc(OCc4ncco4)nc3C)cc(F)c1F)N=C(N)S2 [Example 863, N-(3-((1S,5S,6S)-3-amino-1-(methoxymethyl)-5-methyl-2-thia-4-azabicyclo[4.1.0]hept-3-en-5-yl)-4,5-difluorophenyl)-3-methyl-5-(1,3-oxazol-2-ylmethoxy)-2-pyrazinecarboxamide] | 0.0249 | 0.00635 | 467 | 0.00228 |
| COC[C@]12C[C@H]1[C@@](C)(c1cc(NC(=O)c3ncc(O[C@@H](C)c4ncco4)nc3C)cc(F)c1F)N=C(N)S2 [Example 864, N-(3-((1S,5S,6S)-3-amino-1-(methoxymethyl)-5-methyl-2-thia-4-azabicyclo[4.1.0]hept-3-en-5-yl)-4,5-difluorophenyl)-3-methyl-5-((1S)-1-(1,3-oxazol-2-yl)ethoxy)-2-pyrazinecarboxamide] | 0.652 | 0.172 | 621 | 0.0609 |
| CC#CCOc1cnc2c(Nc3ccc(F)c([C@@]4(CF)N=C(N)S[C@@]5(CF)C[C@H]54)c3)nccc2n1 [Example 865, N-(3-((1S,5S,6S)-3-amino-1,5-bis(fluoromethyl)-2-thia-4-azabicyclo[4.1.0]hept-3-en-5-yl)-4-fluorophenyl)-2-(2-butyn-1-yloxy)pyrido[3,4-b]pyrazin-5-amine] | 0.0123 | 0.00301 | 325 | 0.000236 |
| Cc1nc(COc2cnc3c(Nc4cc(F)c(F)c([C@@]5(C)N=C(N)S[C@@]6(C(F)F)C[C@@H]56)c4)nccc3n2)co1 [Example 870, N-(3-((1S,5S,6S)-3-amino-1-(difluoromethyl)-5-methyl-2-thia-4-azabicyclo[4.1.0]hept-3-en-5-yl)-4,5-difluorophenyl)-2-((2-methyl-1,3-oxazol-4-yl)methoxy)pyrido[3,4-b]pyrazin-5-amine] | 0.0326 | 0.02 | 91.3 | 0.00156 |
| CC(C)Oc1cnc2c(Nc3cc(F)c(F)c([C@@]4(C)N=C(N)S[C@@]5(C(F)F)C[C@@H]45)c3)nccc2n1 [Example 876, N-(3-((1S,5S,6S)-3-amino-1-(difluoromethyl)-5-methyl-2-thia-4-azabicyclo[4.1.0]hept-3-en-5-yl)-4,5-difluorophenyl)-2-(1-methylethoxy)pyrido[3,4-b]pyrazin-5-amine] | 0.912 | 0.587 | 223 | 0.0801 |

Continued by falling IC50 [1], values first:

| IC50 [1] [µM] | IC50 [2] [µM] | IC50 [3] [µM] | IC50 [4] [µM] | Structure (SMILES) |
| --- | --- | --- | --- | --- |
| 0.517 | 1.17 | 352 | 0.0183 | C[C@]1(c2cc(Nc3nccc4nc(OCCCF)cnc34)cc(F)c2F)N=C(N)S[C@@]2(C(F)F)C[C@@H]12 [Example 871, N-(3-((1S,5S,6S)-3-amino-1-(difluoromethyl)-5-methyl-2-thia-4-azabicyclo[4.1.0]hept-3-en-5-yl)-4,5-difluorophenyl)-2-(3-fluoropropoxy)pyrido[3,4-b]pyrazin-5-amine] |
| 0.441 | 2.66 | 239 | 0.0193 | CC(F)(F)COc1cnc2c(Nc3cc(F)c(F)c([C@@]4(C)N=C(N)S[C@@]5(C(F)F)C[C@@H]45)c3)nccc2n1 [Example 872, N-(3-((1S,5S,6S)-3-amino-1-(difluoromethyl)-5-methyl-2-thia-4-azabicyclo[4.1.0]hept-3-en-5-yl)-4,5-difluorophenyl)-2-(2,2-difluoropropoxy)pyrido[3,4-b]pyrazin-5-amine] |
| 0.0755 | 0.0245 | 956 | 0.00361 | Cc1ccnc(COc2cnc3c(Nc4cc(F)c(F)c([C@@]5(C)N=C(N)S[C@@]6(C(F)F)C[C@@H]56)c4)nccc3n2)n1 [Example 874, N-(3-((1S,5S,6S)-3-amino-1-(difluoromethyl)-5-methyl-2-thia-4-azabicyclo[4.1.0]hept-3-en-5-yl)-4,5-difluorophenyl)-2-((4-methyl-2-pyrimidinyl)methoxy)pyrido[3,4-b]pyrazin-5-amine] |
| 0.0549 | 0.011 | 299 | 0.00171 | C[C@]1(c2cc(Nc3nccc4nc(OCc5cocn5)cnc34)cc(F)c2F)N=C(N)S[C@@]2(C(F)F)C[C@@H]12 [Example 867, N-(3-((1S,5S,6S)-3-amino-1-(difluoromethyl)-5-methyl-2-thia-4-azabicyclo[4.1.0]hept-3-en-5-yl)-4,5-difluorophenyl)-2-(1,3-oxazol-4-ylmethoxy)pyrido[3,4-b]pyrazin-5-amine] |
| 0.0358 | 0.287 | 95.1 | 0.00175 | C[C@]1(c2cc(Nc3nccc4nc(OCc5ncccc5F)cnc34)cc(F)c2F)N=C(N)S[C@@]2(C(F)F)C[C@@H]12 [Example 873, N-(3-((1S,5S,6S)-3-amino-1-(difluoromethyl)-5-methyl-2-thia-4-azabicyclo[4.1.0]hept-3-en-5-yl)-4,5-difluorophenyl)-2-((3-fluoro-2-pyridinyl)methoxy)pyrido[3,4-b]pyrazin-5-amine] |
| 0.0352 | 0.0272 | 295 | 0.00296 | C[C@]1(c2cc(Nc3nccc4nc(OCc5cscn5)cnc34)cc(F)c2F)N=C(N)S[C@@]2(C(F)F)C[C@@H]12 [Example 875, N-(3-((1S,5S,6S)-3-amino-1-(difluoromethyl)-5-methyl-2-thia-4-azabicyclo[4.1.0]hept-3-en-5-yl)-4,5-difluorophenyl)-2-(1,3-thiazol-4-ylmethoxy)pyrido[3,4-b]pyrazin-5-amine] |
| 0.0285 | 0.0115 | > 400 | 0.000941 | C[C@]1(c2cc(Nc3nccc4nc(OCc5ncco5)cnc34)cc(F)c2F)N=C(N)S[C@@]2(C(F)F)C[C@@H]12 [Example 866, N-(3-((1S,5S,6S)-3-amino-1-(difluoromethyl)-5-methyl-2-thia-4-azabicyclo[4.1.0]hept-3-en-5-yl)-4,5-difluorophenyl)-2-(1,3-oxazol-2-ylmethoxy)pyrido[3,4-b]pyrazin-5-amine] |
| 0.0211 | 0.0147 | > 400 | 0.000671 | CC#CCOc1cnc2c(Nc3cc(F)c(F)c([C@@]4(C)N=C(N)S[C@@]5(C(F)F)C[C@@H]45)c3)nccc2n1 [Example 868, N-(3-((1S,5S,6S)-3-amino-1-(difluoromethyl)-5-methyl-2-thia-4-azabicyclo[4.1.0]hept-3-en-5-yl)-4,5-difluorophenyl)-2-(2-butyn-1-yloxy)pyrido[3,4-b]pyrazin-5-amine] |
| 0.0173 | 0.00155 | 127 | 0.000725 | CC#CCOc1cnc2c(Nc3cc(F)c(F)c([C@@]4(C)N=C(N)S[C@@]5(COC)C[C@H]54)c3)nccc2n1 [Example 869, N-(3-((1S,5S,6S)-3-amino-1-(methoxymethyl)-5-methyl-2-thia-4-azabicyclo[4.1.0]hept-3-en-5-yl)-4,5-difluorophenyl)-2-(2-butyn-1-yloxy)pyrido[3,4-b]pyrazin-5-amine] |
